From patent US20100160351A1, “PHARMACEUTICAL COMPOSITIONS AND METHODS FOR TREATING HYPERURICEMIA AND RELATED DISORDERS” (NUON THERAPEUTICS, INC., priority 2008, published 2010)
Values joined by “and” are separate entries in the source; they are usually repeats but may differ in a detail not shown here. Identical values can stand only once.

Assays:
[1] = system: monosodium urate (MSU) crystal-induced air pouch inflammation; assay: Air Pouch Model 1: MSU crystal air pouch, rodent model of gout; format: in vivo, male Sprague-Dawley rats; details: for Average Exudate Volume / Average Plasma Extravasation, OD620 nm / Total WBC in Sample / WBC: +MSU, 4 h
Description: The objective of this study was to evaluate the anti-inflammatory affects of tranilast versus a clinically active treatment for gout, colchicine, as well as a clinically active non-steroidal antiinflammatory drug, indomethacin. This evaluation was carried out in male Sprague-Dawley rats in a rodent model of gout. The animals were injected subcutaneously with 20 ml of sterile air, followed three days later by a supplemental injection with 20 ml of sterile air. Six days after the initial sterile air injection, the rats were injected intravenously with Evan's Blue and pretreated for thirty minutes with either a subcutaneous injection of colchicine (1 mg/kg) or indomethacin (5 mg/kg) or oral administration with either 200 mg/kg or 400 mg/kg of tranilast. After the pretreatment period, the rats were injected with 150 mg of monosodium urate (MSU) crystals (10 mg·ml) into the air pouch. Four hours later, the air pouch was injected with 5 ml heparinized saline and the entire contents of the air pouch removed, recording the total volume. The air pouch contents were evaluated for plasma extravasation and total white blood cell (WBC) count.
(§1) On day 0 the rats were anesthetized in a biological cabinet, the nape of the neck was cleansed with 70% isopropanol followed by iodine tincture (VEDCO, lot L021976). Twenty ml sterile (0.22 μm, Fisher Scientific, Cat. 09-720-3, lot R5SN25683) air was injected subcutaneously using a 23 G×2 inch needle fixed to a 20 ml syringe. The rats were returned to routine housing. No adverse reactions were observed.
as §1, with “day 3” for “day 0”
On day 6 the rats were weighed (Mettler, Model PE3000, SN: F69474) and sorted into six treatment groups of ten animals each, based upon average weight. The animals were either dosed subcutaneously with 1 ml/kg colchicine or indomethacin, or orally with either 4 ml/kg or 8 ml/kg tranilast, or 8 ml/kg vehicle. Immediately after test material administration, the rats were intravenously injected with 2 ml/kg Evans Blue.
Thirty minutes after test material administration, the rats were anesthetized and five groups were injected into the air pouch with 15 ml MSU using an 18 G×1 inch needle fitted to a 20 ml syringe. The sixth group was injected with 15 ml saline. The rats were returned to their cages, no adverse affects were observed.
Four hours after MSU injection, the rats were anesthetized and 5 ml 10 U/ml heparinized saline was injected into the air pouch. The air pouch was gently massaged, the contents immediately removed using a 14 G×1 inch needle fitted to a 6 ml syringe, and the exudate volume recorded. An aliquot of the exudate was transferred to heparin-treated microtainer tubes (Becton Dickinson, Cat. 365958, lot 8093666, exp. June 09) for white blood cell (WBC) counting. The remainder of the exudate was centrifuged (Hermle Labrotechnik, Model Z200A, SN: 44060036), the supernatants removed and evaluated at OD620nm (Spectronic Unicam, Model 4000 1/4, SN: 3SGD003006) for plasma extravasation.

[2] = system: serum uric acid (sUA) levels; assay: Study A3006GT: phase 2 crossover, sUA in healthy subjects with screening sUA of at least 7.1 mg/dL; tranilast, febuxostat, combination; format: in vivo, human
Description: Study A3006GT was a phase 2, randomized, double-blind, 3-period, 3-treatment crossover trial. The primary objective was to compare the effects of three treatments on serum uric acid (sUA) levels in healthy subjects with a screening sUA level of at least 7.1 mg/dL. The three treatments were: 300 mg QD tranilast and 40 mg QD febuxostat (C); 300 mg QD tranilast alone (T); 40 mg QD febuxostat alone (F).
The study was conducted in 23 subjects. […] With two exceptions, every subject provided data for all three treatments. Subject 1001 completed only the first two periods of the study (C and F). […] Therefore, the period 3 data for subject 1024 are excluded from the analyses presented here.
Two endpoints were considered: change from baseline to day 7 in sUA; and percent change from baseline to day 7 in sUA. For each endpoint, an analysis of variance (ANOVA) model for a three-period crossover trial was used. The model included effects for sequence, subject within sequence, treatment, and period. The sequence effect was tested using the subject within sequence mean square as the error term. Two pairwise comparisons between treatments were tested: C−F and C−T. In addition, the two-sided 95% confidence interval for each of these differences was computed.
For each subject for which results were available from all three treatments, the difference between the change for C and the sum of the changes for F and T was computed. Although the true magnitude of the difference between these two values is not known, a conservative null hypothesis is that this difference should be equally likely to be greater than or less than zero. The sign test and the Wilcoxon signed rank test were used to test this null hypothesis.
Using the change for each subject as the dependent variable, an analysis of variance (ANOVA) model for a three-period crossover trial was fit. This model included effects for sequence, subject within sequence, treatment, and period. Using the least squares estimates of the mean changes for each treatment, along with the 3×3 covariance matrix of these three estimates, the mean and SD of the difference between C and F+T was estimated, as follows.

[3] = 5 mg/kg indomethacin subcutaneous, 30 min before MSU
[4] = Group 3: indomethacin 5 mg/kg subcutaneous
[5] = 1 mg/kg colchicine subcutaneous, 30 min before MSU
[6] = Group 2: colchicine 1 mg/kg subcutaneous
[7] = end of 1-week treatment (day 7), C: 300 mg QD tranilast + 40 mg QD febuxostat, T: 300 mg QD, F: 40 mg QD
[8] = individual subjects, per study period, end of the 1-week treatment period

SMILES: COc1ccc2c(c1)c(CC(=O)O)c(C)n2C(=O)c1ccc(Cl)cc1 [Indomethacin]
- reduction in inflammatory cell infiltration into the air pouch [1, 3]: 94%
- reduction of plasma extravasation [1, 3]: 69%
- Average Exudate Volume [1, 4]: 4.9 mL
- Average Plasma Extravasation, OD620 nm [1, 4]: 0.505
- Total WBC in Sample [1, 4]: 18520000
- WBC [1, 4]: 4160000 cells/ml

SMILES: COc1cc2c(c(OC)c1OC)-c1ccc(OC)c(=O)cc1[C@@H](NC(C)=O)CC2 [Colchicine, N-[1,2,3,10-Tetramethoxy-9-oxo-5,6,7,9-tetrahydrobenzo[a]heptalen-7(S)-yl]acetamide]
- inhibition of plasma extravasation [1, 5]: 52%
- reduction in inflammatory cell infiltration [1, 5]: 88%
- Average Exudate Volume [1, 6]: 3.9 mL
- Average Plasma Extravasation, OD620 nm [1, 6]: 0.776
- Total WBC in Sample [1, 6]: 35131400
- WBC [1, 6]: 9215000 cells/ml

SMILES: Cc1nc(-c2ccc(OCC(C)C)c(C#N)c2)sc1C(=O)O [F]
- sUA Change from Baseline, Max [2, 7]: -0.70 mg/dL
- sUA Change from Baseline, Mean [2, 7]: -2.75 mg/dL
- sUA Change from Baseline, Median [2, 7]: -2.85 mg/dL
- sUA Change from Baseline, Min [2, 7]: -3.80 mg/dL
- sUA Percent Change from Baseline, Max [2, 7]: −9.21%
- sUA Percent Change from Baseline, Mean [2, 7]: −35.32%
- sUA Percent Change from Baseline, Median [2, 7]: −36.86%
- sUA Percent Change from Baseline, Min [2, 7]: −48.68%
- sUA Change from baseline [2, 8]: −0.7 mg/dL and −2.9 mg/dL (2×) and −2.1 mg/dL (2×) and −1.2 mg/dL and −1.8 mg/dL and −2.8 mg/dL and −3.5 mg/dL (2×) and −2.4 mg/dL and −3.7 mg/dL (2×) and −2.7 mg/dL and −3.6 mg/dL (2×) and −3.3 mg/dL and −3.8 mg/dL and −2.2 mg/dL and −3.1 mg/dL and −2.3 mg/dL and −2.6 mg/dL
- sUA Percent Change from baseline [2, 8]: −9.21% and −35.80% and −28.00% and −16.90% and −22.78% and −41.43% and −43.08% and −40.23% and −35.82% and −36.63% and −41.54% and −46.75% and −28.38% and −37.08% and −43.18% and −31.43% and −40.70% and −39.13% and −48.68% and −42.47% and −35.38% and −32.50%
